Experimental data: paper PMC9855422, “Purification and Properties of Polyphenol Oxidase of Dried Volvariella bombycina” (Biology, 2022)

What was measured:
[1] = test system: T1, dried V. bombycina PPO (polyphenol oxidase); assay: spectrophotometric oxidation at […] nm, Lineweaver-Burk; assay type: biochemical, Volvariella bombycina
T1 construct: single band about 25 kDa on SDS-PAGE

[2] = test system: T1, dried V. bombycina PPO (polyphenol oxidase); assay: as above; assay type: biochemical, Volvariella bombycina; settings: optimum pH 8.0, 15 °C

`Cc1ccc(O)c(O)c1` [4-methyl catechol] showed a Km ([1]; optimum pH 9.0, 20 °C) of 3170 µM.

Work on `Oc1ccccc1O` [catechol] yielded a Km ([1]; optimum pH 6.5, 15 °C, 0.1 M phosphate buffer) of 1670 µM.

`Oc1cccc(O)c1O` [pyrogallol] gave a Km [2] of 2670 µM.
